Test results taken from patent US20260325580A1, “CYTOTOXICITY TARGETING CHIMERAS FOR CAR-T AND CAR-NK CELLS” (GLAXOSMITHKLINE INTELLECTUAL PROPERTY DEVELOPMENT LIMITED, priority 2023, published 2026).
Read-outs that look alike come from different tables or passages of the source. One block for each compound: values may come before it.

How the values were obtained:
Format in all cases: cell-based
[1] = tested on: FOLR-expressing target cells; assay: Pro-inflammatory cytokine (IFN-gamma) production assay, FOLR-expressing target cells; settings: EC50 in molar (M)
Description: (§1) Example 4: Immune Effector Cell (i.e., Anti-Cotinine CAR-T Cell, Anti-Cotinine CAR-NK92 Cell) Functional Study: Pro-Inflammatory Cytokine (e.g., IFN-Gamma) Production Assay
(§2) An ELISA assay was performed to quantify the level of IFN-gamma production by anti-cotinine CAR-T cells in the presence of CyTaC using a Meso Scale Discovery (MSD) T-Plex Multispot Cytokine Assay System. To perform the ELISA assay, each sample was obtained from the co-incubation of anti-cotinine immune effector cells (i.e. CAR-T, CAR-NK92), antigen-expressing target cells, and respective antigen-targeting CyTaCs. CAR-T and CAR-NK cells were prepared as described above in Examples 2 and 3, respectively.
(§3) Antigen-expressing target cells were pre-seeded at a density 1.5×10^4 cells per 100 μL of media in each well of a 96-well plate and grown overnight. […] The anti-cotinine immune effector cells (i.e. CAR-T, CAR-NK92) were next added to the wells at a fixed ratio (between 1:1 and 10:1) of effector cells to antigen-expressing After co-incubation, the supernatants were removed from the wells and analyzed to determine IFNγ release using a pro-inflammatory cytokine production assay (Meso Scale Diagnostics V-PLEX Human IFNγ Kit) according to manufacturer's protocol. […]

[2] = tested on: FOLR-expressing target cells; assay: In vitro cell killing, Method 1: CellTiter-Glo luminescent cell viability assay, FOLR-expressing target cells; settings: 24 hours, EC50 in molar (M)
Description: (§4) In vitro cell killing of antigen expressing target cells in the presence of anti-cotinine CAR-T or CAR-NK cells and antigen matched CyTaCs was evaluated by three different methods: Cell Titler Glo assay (method 1); Real-Time Cell Analysis (RTCA) Impedance Assay (method 2); and live cell analysis assay (method 3), as described below.
(§5) A luminescent assay was performed to quantify the number of viable cells remaining following co-incubation of antigen-expressing adherent target cells, anti-cotinine CAR-T cells, and antigen matched CyTaCs using a CellTiter-Glo Luminescent Cell Viability Assay (Promega). […] After co-incubation, the supernatants were removed from the wells, the residual adherent target cells in the wells were then analyzed for cell viability using CellTiter-Glo® Luminescent Cell Viability Assay (Promega) according to manufacturer's instructions, as described below in Example 5.
(§6) CyTaC compounds of Formula (I) were evaluated for anti-cotinine immune cell mediated cell cytotoxicity in the above assay in one or more experimental runs and the results are shown in Table 6 below and FIGS. 2A, 2B, and 2C. […] The pEC50 value is the negative log of the EC50 value, wherein the EC50 value is half maximal effective concentration measured in molar (M). […]

[3] = tested on: LNCap (PSMA+) cells; assay: In vitro cell killing, Method 3: Live-Cell Analysis assay (Incucyte), PSMA-expressing target cells (LNCap); settings: Homo sapiens, 24 hour timepoint, 5:1 effector cells to target cells, EC50 in molar (M), read-out: Incucyte ® pEC50, LNCap (converted)
Description: as §4
Method 3: Live-Cell Analysis Assay (Incucyte®)
A Live-Cell Analysis assay (Incucyte®) was performed to assess in vitro cell killing of fluorescently-labelled antigen-expressing adherent target cells co-incubated with anti-cotinine immune effector cells (i.e. CAR-T cells, CAR-NK92 cells) and antigen matched CyTaCs. To perform the live-cell analysis assay, fluorescently-labelled antigen-expressing target cells were seeded at a density of 1.0×10^4 to 3×10^4 cells per 100 μL of media, and grown overnight in a 37° C. incubator. The next day, 50 μL of antigen-matched CyTaC solution was added at a concentration to result in 10 μM to 0.01 nM final assay concentration, followed by the addition of 50 μL anti-cotinine immune effector cells (i.e. CAR-T cells, CAR-NK92 cells) at a ratio of 5:1 effector cells to antigen-presenting target cells. The samples were placed in Live-Cell Analysis (Incucyte®) instrument, and the fluorescence of the wells was recorded every 2 hours for an additional 24 to 48 hours.
(§7) CyTaC compounds of Formula (I) were evaluated for anti-cotinine immune cell (i.e. CAR-T, CAR-NK92) mediated cell cytotoxicity as measured by fluorescence of viable cells in the above assay in one or more experimental runs and the results are shown in Table 7 and FIG. 4. Potency of the compounds of Formula (I) is reported as a pEC50 value at the 24 hour timepoint. The pEC50 value is the negative log of the EC50 value, wherein the EC50 value is half maximal effective concentration measured in molar (M). For compounds tested in more than one experimental run, the pEC50 value is reported as an average.

[4] = tested on: LNCap (PSMA+) cells; assay: Pro-inflammatory cytokine (IFN-gamma) production assay, PSMA-expressing target cells (LNCap), MSD ELISA; settings: Homo sapiens, EC50 in molar (M)
Description: as §1, §2
Antigen-expressing target cells were pre-seeded at a density 1.5×10^4 cells per 100 μL of media in each well of a 96-well plate and grown overnight. For functional confirmation of immune effector cell (i.e. anti-cotinine CAR-T cells, anti-cotinine CAR-NK92 cells) activation, 100 nM or 10 nM of CyTaC was introduced into each well where the target cells were seeded to activate the anti-cotinine immune effector cell. For dose response determinations, 10 μM to 0.01 nM of CyTaC was added to the wells. The anti-cotinine immune effector cells (i.e. CAR-T, CAR-NK92) were next added to the wells at a fixed ratio (between 1:1 and 10:1) of effector cells to antigen-expressing After co-incubation, the supernatants were removed from the wells and analyzed to determine IFNγ release using a pro-inflammatory cytokine production assay (Meso Scale Diagnostics V-PLEX Human IFNγ Kit) according to manufacturer's protocol.
For dose response determinations, EC50 calculations were done using Graphpad Prism Software, specifically a nonlinear regression curve fit (Y=Bottom+(Top−Bottom)/(1+10^((Log EC50−X)*HillSlope))).
as §7, with “tested” for “evaluated”, “activation” for “mediated cell cytotoxicity”, “IFN-Gamma production” for “fluorescence of viable cells”, “5.” for “7 and FIG. 4.”, “value.” for “value at the 24 hour timepoint.”

[5] = tested on: FAP-expressing target cells; assay: Pro-inflammatory cytokine (IFN-gamma) production assay, FAP-expressing target cells; settings: EC50 in molar (M)
Description: as §1, §2, §3

[6] = tested on: FAP-expressing target cells; assay: In vitro cell killing, Method 1: CellTiter-Glo luminescent cell viability assay, FAP-expressing target cells; settings: 24 hours, EC50 in molar (M)
Description: as §4, §5, §6

[7] = tested on: αVβ6-expressing target cells; assay: Pro-inflammatory cytokine (IFN-gamma) production assay, αVβ6-expressing target cells; settings: EC50 in molar (M)
Description: as §1, §2, §3

[8] = tested on: αVβ6-expressing target cells; assay: In vitro cell killing, Method 1: CellTiter-Glo luminescent cell viability assay, αVβ6-expressing target cells; settings: anti-cotinine CAR-T, 24 hours, EC50 in molar (M), read-out: Cell Titler Glo pEC50 (CAR-T) (converted)
Description: as §4, §5, §6

[9] = tested on: PSMA-expressing target cells; assay: In vitro cell killing, Method 1: CellTiter-Glo luminescent cell viability assay, PSMA-expressing target cells; settings: 24 hours, EC50 in molar (M)
Description: as §4, §5, §6

[10] = anti-cotinine CAR-NK, read-out: IFNγ Production pEC50 (CAR-NK) (converted)
[11] = anti-cotinine CAR-T, read-out: IFNγ Production pEC50 (CAR-T) (converted)
[12] = anti-cotinine CAR-NK, read-out: Cell Titler Glo pEC50 (CAR-NK) (converted)
[13] = CAR-T cell activation, PSMA-targeting CyTaCs, read-out: IFNγ Production pEC50, LNCap (converted)
[14] = anti-cotinine CAR-T, read-out: Cell Titler Glo pEC50 (CAR-T) (converted)

SMILES: CN1C(=O)C[C@H](C(=O)NCCO[C@H]2CC[C@H](OCCCC(=O)N[C@H]3CC[C@H](C(=O)NCCNC(=O)[C@H](Cc4ccccc4)NC(=O)[C@H](Cc4ccccc4)NC(=O)CCCCCCCNC(=O)CC[C@H](NC(=O)N[C@@H](CCC(=O)O)C(=O)O)C(=O)O)CC3)CC2)[C@H]1c1cccnc1 [compound 2]
EC50 [3]: 3.98e-09 M
EC50 [4, 13]: 5.01e-08 M

SMILES: CN(CCNC(=O)[C@H]1CC[C@H](NC(=O)CCCO[C@H]2CC[C@H](OCCNC(=O)[C@H]3CC[C@H](NC(=O)CCCO[C@H]4CC[C@H](OCCNC(=O)[C@H]5CC(=O)N(C)[C@@H]5c5cccnc5)CC4)CC3)CC2)CC1)c1ccc2nccc(C(=O)NCC(=O)N3CC(F)(F)C[C@H]3C#N)c2c1 [compound 7]
EC50 [5, 10]: 5.01e-11 M
EC50 [5, 11]: 1e-09 M
EC50 [6, 12]: 5.01e-10 M
EC50 [6, 14]: 2e-10 M

SMILES: CN1C(=O)C[C@H](C(=O)NCCNC(=O)[C@H](Cc2ccccc2)NC(=O)[C@H](Cc2ccccc2)NC(=O)CCCCCCCNC(=O)CC[C@H](NC(=O)N[C@@H](CCC(=O)O)C(=O)O)C(=O)O)[C@H]1c1cccnc1 [compound 3]
EC50 [3]: 1.26e-08 M
EC50 [4, 13]: 1e-07 M

SMILES: CN1C(=O)C[C@H](C(=O)NCCO[C@H]2CC[C@H](OCCCC(=O)N[C@H]3CC[C@H](C(=O)N4CCN(c5cccc([C@H](CC(=O)O)CN6CC[C@@H](CCc7ccc8c(n7)NCCC8)C6)c5)CC4)CC3)CC2)[C@H]1c1cccnc1 [compound 5]
EC50 [7, 10]: 5.01e-10 M
EC50 [7, 11]: 6.31e-10 M
EC50 [8]: 2.51e-10 M

Further lines, with some results ahead:

EC50 [1, 10]: 2.51e-12 M
EC50 [1, 11]: 1.58e-08 M
SMILES: CN1C(=O)C[C@H](C(=O)NCCO[C@H]2CC[C@H](OCCCC(=O)N[C@H]3CC[C@H](C(=O)NCCNC(=O)CC[C@H](NC(=O)c4ccc(NCc5cnc6nc(N)[nH]c(=O)c6n5)cc4)C(=O)O)CC3)CC2)[C@H]1c1cccnc1 [compound 6]
EC50 [2, 12]: 1e-09 M
Cell Titler Glo pEC50 (CAR-T) ([2]; anti-cotinine CAR-T): Inactive

EC50 [4, 13]: 5.01e-08 M
SMILES: CN1C(=O)C[C@H](C(=O)NCCO[C@H]2CC[C@H](OCCCC(=O)N[C@H]3CC[C@H](C(=O)NCCNC(=O)CC[C@H](NC(=O)N[C@@H](CCC(=O)O)C(=O)O)C(=O)O)CC3)CC2)[C@H]1c1cccnc1 [compound 4]
EC50 [3]: 1e-08 M

EC50 [4, 13]: 1.58e-10 M
EC50 ([4]; anti-cotinine CAR-NK, PSMA-expressing target cells, read-out: IFNγ Production pEC50 (CAR-NK) (converted)): 1.58e-11 M
EC50 ([4]; anti-cotinine CAR-T, PSMA-expressing target cells, read-out: IFNγ Production pEC50 (CAR-T) (converted)): 1.58e-10 M
SMILES: CN1C(=O)C[C@H](C(=O)NCCO[C@H]2CC[C@H](OCCCC(=O)N[C@H]3CC[C@H](C(=O)N[C@@H](Cc4ccc5ccccc5c4)C(=O)NCCCC[C@H](NC(=O)N[C@@H](CCC(=O)O)C(=O)O)C(=O)O)CC3)CC2)[C@H]1c1cccnc1 [compound 1]
EC50 [3]: 2.51e-10 M
EC50 [9, 12]: 3.98e-11 M
EC50 [9, 14]: 1.58e-10 M
